Test results from ChEMBL document CHEMBL3885861, “Open TG-GATES”.

Species on record: Rattus norvegicus
Assay: Open TG-GATES - Regimen: Daily Repeat
Type: toxicity, organism-based, Sprague-Dawley
Parameters: regimen Daily Repeat, gender Male, age 6 weeks
Conditions: in vivo, po, 0 mg/kg, route gavage, dose level Control; for KIDNEY_L / KIDNEY_R / KIDNEY_TOTAL: tissue Kidney; for ALP / ALT / AST / BUN / CRE / Ca / Cl / DBIL / GLC / IP / K / LDH / Na / PL / RALB / TBIL / TC / TG / TP / gamma-GTP: tissue Plasma

O=C1CN(/N=C/c2ccc(-c3ccc([N+](=O)[O-])cc3)o2)C(O)=N1 [DANTROLENE]
TERMINAL_BW (72 h, time 3 day): 235.4 g | APTT (72 h, tissue Blood, time 3 day): 16.8 s | Bas (72 h, tissue Blood, time 3 day): 0% | Eos (72 h, tissue Blood, time 3 day): 1% | Fbg (72 h, tissue Blood, time 3 day): 224.8 mg/dL | Hb (72 h, tissue Blood, time 3 day): 13.3 g/dL | Lym (72 h, tissue Blood, time 3 day): 77% | MCH (72 h, tissue Blood, time 3 day): 21.6 pg | MCHC (72 h, tissue Blood, time 3 day): 33.6% | MCV (72 h, tissue Blood, time 3 day): 64.2 fL | Mono (72 h, tissue Blood, time 3 day): 6.6% | Plat (72 h, tissue Blood, time 3 day): 128.8 x10_4/uL | RBC (72 h, tissue Blood, time 3 day): 618.2 x10_4/ul | Ret (72 h, tissue Blood, time 3 day): 6.6% | WBC (72 h, tissue Blood, time 3 day): 113.2 x10_2/uL | KIDNEY_L (72 h, time 3 day): 1.1 g | KIDNEY_R (72 h, time 3 day): 1.1 g | KIDNEY_TOTAL (72 h, time 3 day): 2.2 g | ALP (72 h, time 3 day): 842.8 IU/L | ALT (72 h, time 3 day): 34 IU/L | AST (72 h, time 3 day): 62.8 IU/L | BUN (72 h, time 3 day): 19.2 mg/dL | CRE (72 h, time 3 day): 0.6 mg/dL | Ca (72 h, time 3 day): 10.9 mg/dL | Cl (72 h, time 3 day): 104 meq/L | DBIL (72 h, time 3 day): 0.004 mg/dL | GLC (72 h, time 3 day): 200.6 mg/dL | IP (72 h, time 3 day): 7.5 mg/dL | K (72 h, time 3 day): 4.7 meq/L | LDH (72 h, time 3 day): 85 IU/L | Na (72 h, time 3 day): 140.2 meq/L | PL (72 h, time 3 day): 158.6 mg/dL | RALB (72 h, time 3 day): 3.8 g/dL | TBIL (72 h, time 3 day): 0.3 mg/dL | TC (72 h, time 3 day): 78.4 mg/dL | TG (72 h, time 3 day): 114.8 mg/dL | TP (72 h, time 3 day): 5.8 g/dL | gamma-GTP (72 h, time 3 day): 1 IU/L | TERMINAL_BW ([…], time 7 day): 269.1 g | TERMINAL_BW ([…], time 14 day): 300.9 g | TERMINAL_BW ([…], time 28 day): 379.1 g | APTT ([…], tissue Blood, time 7 day): 16.9 s | Bas ([…], tissue Blood, time 7 day): 0% | Eos ([…], tissue Blood, time 7 day): 1% | Fbg ([…], tissue Blood, time 7 day): 213 mg/dL | Hb ([…], tissue Blood, time 7 day): 14 g/dL | Lym ([…], tissue Blood, time 7 day): 78.2% | MCH ([…], tissue Blood, time 7 day): 21 pg | MCHC ([…], tissue Blood, time 7 day): 33.6% | MCV ([…], tissue Blood, time 7 day): 62.7 fL | Mono ([…], tissue Blood, time 7 day): 7.4% | Plat ([…], tissue Blood, time 7 day): 126.8 x10_4/uL | RBC ([…], tissue Blood, time 7 day): 666.4 x10_4/ul | Ret ([…], tissue Blood, time 7 day): 5.1% | WBC ([…], tissue Blood, time 7 day): 106.4 x10_2/uL | APTT ([…], tissue Blood, time 14 day): 17.6 s | Bas ([…], tissue Blood, time 14 day): 0% | Eos ([…], tissue Blood, time 14 day): 0.4% | Fbg ([…], tissue Blood, time 14 day): 201.8 mg/dL | Hb ([…], tissue Blood, time 14 day): 14.8 g/dL | Lym ([…], tissue Blood, time 14 day): 82.6% | MCH ([…], tissue Blood, time 14 day): 20.3 pg | MCHC ([…], tissue Blood, time 14 day): 33.3% | MCV ([…], tissue Blood, time 14 day): 61.1 fL | Mono ([…], tissue Blood, time 14 day): 3.8% | Plat ([…], tissue Blood, time 14 day): 112.9 x10_4/uL | RBC ([…], tissue Blood, time 14 day): 728.6 x10_4/ul | Ret ([…], tissue Blood, time 14 day): 3.7% | WBC ([…], tissue Blood, time 14 day): 110.6 x10_2/uL | APTT ([…], tissue Blood, time 28 day): 18.6 s | Bas ([…], tissue Blood, time 28 day): 0% | Eos ([…], tissue Blood, time 28 day): 1.4% | Fbg ([…], tissue Blood, time 28 day): 217.6 mg/dL | Hb ([…], tissue Blood, time 28 day): 15.6 g/dL | Ht ([…], tissue Blood, time 28 day): 46.2% | Lym ([…], tissue Blood, time 28 day): 84% | MCH ([…], tissue Blood, time 28 day): 19.5 pg | MCHC ([…], tissue Blood, time 28 day): 33.9% | MCV ([…], tissue Blood, time 28 day): 57.5 fL | Mono ([…], tissue Blood, time 28 day): 4.6% | Plat ([…], tissue Blood, time 28 day): 117 x10_4/uL | RBC ([…], tissue Blood, time 28 day): 803.2 x10_4/ul | Ret ([…], tissue Blood, time 28 day): 2.8% | WBC ([…], tissue Blood, time 28 day): 103.3 x10_2/uL | KIDNEY_L ([…], time 7 day): 1.2 g | KIDNEY_R ([…], time 7 day): 1.2 g | KIDNEY_TOTAL ([…], time 7 day): 2.4 g | KIDNEY_L ([…], time 14 day): 1.2 g | KIDNEY_R ([…], time 14 day): 1.3 g | KIDNEY_TOTAL ([…], time 14 day): 2.5 g | KIDNEY_L ([…], time 28 day): 1.4 g | KIDNEY_R ([…], time 28 day): 1.3 g | KIDNEY_TOTAL ([…], time 28 day): 2.7 g | ALP ([…], time 7 day): 931.4 IU/L | ALT ([…], time 7 day): 33.4 IU/L | AST ([…], time 7 day): 64.2 IU/L | BUN ([…], time 7 day): 18.2 mg/dL | CRE ([…], time 7 day): 0.5 mg/dL | Ca ([…], time 7 day): 10.7 mg/dL | Cl ([…], time 7 day): 106.8 meq/L | DBIL ([…], time 7 day): 0.002 mg/dL | GLC ([…], time 7 day): 204 mg/dL | IP ([…], time 7 day): 7.2 mg/dL | K ([…], time 7 day): 5.1 meq/L | LDH ([…], time 7 day): 76.6 IU/L | Na ([…], time 7 day): 138.6 meq/L | PL ([…], time 7 day): 164.2 mg/dL | RALB ([…], time 7 day): 3.8 g/dL | TBIL ([…], time 7 day): 0.3 mg/dL | TC ([…], time 7 day): 79.6 mg/dL | TG ([…], time 7 day): 138.8 mg/dL | TP ([…], time 7 day): 5.8 g/dL | gamma-GTP ([…], time 7 day): 1.4 IU/L | ALP ([…], time 14 day): 833.2 IU/L | ALT ([…], time 14 day): 31.4 IU/L | AST ([…], time 14 day): 61.6 IU/L | BUN ([…], time 14 day): 17.8 mg/dL | CRE ([…], time 14 day): 0.6 mg/dL | Ca ([…], time 14 day): 10.5 mg/dL | Cl ([…], time 14 day): 105.4 meq/L | DBIL ([…], time 14 day): 0.012 mg/dL | GLC ([…], time 14 day): 203.6 mg/dL | IP ([…], time 14 day): 7.5 mg/dL | K ([…], time 14 day): 4.5 meq/L | LDH ([…], time 14 day): 82.6 IU/L | Na ([…], time 14 day): 141.8 meq/L | PL ([…], time 14 day): 139.2 mg/dL | RALB ([…], time 14 day): 3.9 g/dL | TBIL ([…], time 14 day): 0.3 mg/dL | TC ([…], time 14 day): 62 mg/dL | TG ([…], time 14 day): 85.8 mg/dL | TP ([…], time 14 day): 5.9 g/dL | gamma-GTP ([…], time 14 day): 0.8 IU/L | ALP ([…], time 28 day): 628.6 IU/L | ALT ([…], time 28 day): 30.6 IU/L | AST ([…], time 28 day): 50.8 IU/L | BUN ([…], time 28 day): 18 mg/dL | CRE ([…], time 28 day): 0.6 mg/dL | Ca ([…], time 28 day): 10.3 mg/dL | Cl ([…], time 28 day): 106.8 meq/L | DBIL ([…], time 28 day): 0.016 mg/dL | GLC ([…], time 28 day): 187.8 mg/dL | IP ([…], time 28 day): 6.5 mg/dL | K ([…], time 28 day): 4.4 meq/L | LDH ([…], time 28 day): 83.2 IU/L | Na ([…], time 28 day): 140 meq/L | PL ([…], time 28 day): 143.4 mg/dL | RALB ([…], time 28 day): 3.8 g/dL | TBIL ([…], time 28 day): 0.3 mg/dL | TC ([…], time 28 day): 69.6 mg/dL | TG ([…], time 28 day): 127.2 mg/dL | TP ([…], time 28 day): 6.1 g/dL
